# From the NIST ThermoML archive (doi:10.1016/j.fluid.2019.06.021)
# Numbers after ± are expanded uncertainties.
# Details: Crystal; DTA
row,SMILES,Normal melting temperature
1,c1ccc(Nc2ccccc2)cc1 [diphenylamine],52.5 ± 0.9 °C
2,COCCNc1ccc([N+](=O)[O-])cc1 [N-(2-methoxyethyl)-4-nitroaniline],85.8 ± 0.9 °C
3,CC(=O)OCCNc1ccc([N+](=O)[O-])cc1 [2-[(4-nitrophenyl)amino]ethanol 1-acetate],113.2 ± 0.9 °C
4,O=[N+]([O-])c1ccccc1Nc1ccccc1 [2-nitrodiphenylamine],74.8 ± 0.9 °C
5,"CCN(C(=O)N(CC)c1ccccc1)c1ccccc1 [1,3-diethyl-1,3-diphenylurea]",72.6 ± 0.9 °C
